One may read the IC50 as the midpoint of a concentration-inhibition curve.

The target of this assay is Human SGLT2 (hSGLT2) (Homo sapiens (Human), UniProt P31639). Nature of the assay: Inhibitory effects on human SGLT2 activities: sodium-dependent 14C-AMG glucose transport (uptake) assay in CHO cells expressing hSGLT2. Conditions: read-out: hSGLT2 Inhibitory Activity IC50; CHO cells stably expressing hSGLT2; 14C-AMG uptake, 37° C., 2 h; single determinations for examples; in-house assay.
Human SGLT2 (hSGLT2), sequence (P31639 whole entry): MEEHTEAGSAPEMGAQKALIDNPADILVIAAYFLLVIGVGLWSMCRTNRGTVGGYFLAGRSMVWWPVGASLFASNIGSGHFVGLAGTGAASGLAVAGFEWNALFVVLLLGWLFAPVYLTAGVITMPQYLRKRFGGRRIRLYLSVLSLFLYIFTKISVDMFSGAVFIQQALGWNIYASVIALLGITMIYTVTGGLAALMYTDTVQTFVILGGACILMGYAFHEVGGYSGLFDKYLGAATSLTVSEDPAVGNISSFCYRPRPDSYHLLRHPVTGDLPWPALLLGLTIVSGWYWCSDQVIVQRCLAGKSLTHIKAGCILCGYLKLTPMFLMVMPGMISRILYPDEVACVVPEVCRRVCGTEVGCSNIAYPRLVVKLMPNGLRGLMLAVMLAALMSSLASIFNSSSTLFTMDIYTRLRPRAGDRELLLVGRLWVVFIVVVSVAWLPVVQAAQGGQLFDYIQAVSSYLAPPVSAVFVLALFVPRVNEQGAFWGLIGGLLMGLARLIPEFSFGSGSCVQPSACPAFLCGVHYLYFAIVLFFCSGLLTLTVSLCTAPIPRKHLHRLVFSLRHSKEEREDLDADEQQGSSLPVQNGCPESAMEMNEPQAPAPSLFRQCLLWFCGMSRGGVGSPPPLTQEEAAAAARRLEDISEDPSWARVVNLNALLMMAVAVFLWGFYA
As for `CCOc1ccc(Cc2cc([C@@H]3O[C@H](CO)[C@@H](O)[C@H](O)[C@H]3O)sc2Cl)cc1` [Example 1, (2R,3R,4S,5S,6R)-2-(5-chloro-4-(4-ethoxybenzyl)thiophen-2-yl)-6-(hydroxymethyl)-tetrahydro-2H-pyran-3,4,5-triol], the IC50 is 34.6 nM.
To `COc1ccc(Cc2cc([C@@H]3O[C@H](CO)[C@@H](O)[C@H](O)[C@H]3O)sc2Cl)cc1` [Example 2, (2R,3R,4S,5S,6R)-2-(5-chloro-4-(4-methoxybenzyl)thiophen-2-yl)-6-(hydroxymethyl)-tetrahydro-2H-pyran-3,4,5-triol] belongs 86.5 nM; to `OC[C@H]1O[C@@H](c2cc(Cc3ccc(-c4ccc(F)cc4)s3)c(Cl)s2)[C@H](O)[C@@H](O)[C@@H]1O` [Example 3, (2R,3R,4S,5S,6R)-2-(5-chloro-4-((5-(4-fluorophenyl)thiophen-2-yl)methyl)thiophen-2-yl)-6-(hydroxymethyl)-tetrahydro-2H-pyran-3,4,5-triol], 91.3 nM.
As for `C=CCOc1ccc(Cc2cc([C@@H]3O[C@H](CO)[C@@H](O)[C@H](O)[C@H]3O)sc2Cl)cc1` [Example 4, (2R,3R,4S,5S,6R)-2-(4-(4-(allyloxy)benzyl)-5-chlorothiophen-2-yl)-6-(hydroxymethyl)-tetrahydro-2H-pyran-3,4,5-triol], the half-maximal inhibitory concentration (IC50) came to 54.6 nM.
To `CCCOc1ccc(Cc2cc([C@@H]3O[C@H](CO)[C@@H](O)[C@H](O)[C@H]3O)sc2Cl)cc1` [Example 5, (2R,3R,4S,5S,6R)-2-(5-chloro-4-(4-propoxybenzyl)thiophen-2-yl)-6-(hydroxymethyl)-tetrahydro-2H-pyran-3,4,5-triol] belongs 65 nM.
To `OC[C@H]1O[C@@H](c2cc(Cc3ccc(O)cc3)c(Cl)s2)[C@H](O)[C@@H](O)[C@@H]1O` [Example 6, (2R,3R,4S,5S,6R)-2-(5-chloro-4-(4-hydroxybenzyl)thiophen-2-yl)-6-(hydroxymethyl)-tetrahydro-2H-pyran-3,4,5-triol] belongs 140 nM; to `CCSc1ccc(Cc2cc([C@@H]3O[C@H](CO)[C@@H](O)[C@H](O)[C@H]3O)sc2Cl)cc1` [Example 7, (2R,3R,4S,5S,6R)-2-(5-chloro-4-(4-(ethylthio)benzyl)thiophen-2-yl)-6-(hydroxymethyl)-tetrahydro-2H-pyran-3,4,5-triol], 48.4 nM.
On to `C#CCOc1ccc(Cc2cc([C@@H]3O[C@H](CO)[C@@H](O)[C@H](O)[C@H]3O)sc2Cl)cc1` [Example 8, (2R,3R,4S,5S,6R)-2-(5-chloro-4-(4-(prop-2-ynyloxy)benzyl)thiophen-2-yl)-6-(hydroxymethyl)-tetrahydro-2H-pyran-3,4,5-triol], for which the IC50 stood at 111 nM.
To `CC(C)Oc1ccc(Cc2cc([C@@H]3O[C@H](CO)[C@@H](O)[C@H](O)[C@H]3O)sc2Cl)cc1` [Example 9, (2R,3R,4S,5S,6R)-2-(5-chloro-4-(4-isopropoxybenzyl)thiophen-2-yl)-6-(hydroxymethyl)-tetrahydro-2H-pyran-3,4,5-triol] belongs 11.9 nM.
To `COCCOc1ccc(Cc2cc([C@@H]3O[C@H](CO)[C@@H](O)[C@H](O)[C@H]3O)sc2Cl)cc1` [Example 10, (2R,3R,4S,5S,6R)-2-(5-chloro-4-(4-(2-methoxyethoxy)benzyl)thiophen-2-yl)-6-(hydroxymethyl)-tetrahydro-2H-pyran-3,4,5-triol] belongs 115 nM.
With `OC[C@H]1O[C@@H](c2cc(Cc3ccc(OC4CCCC4)cc3)c(Cl)s2)[C@H](O)[C@@H](O)[C@@H]1O` [Example 11, (2R,3R,4S,5S,6R)-2-(5-chloro-4-(4-(cyclopentyloxy)benzyl)thiophen-2-yl)-6-(hydroxymethyl)-tetrahydro-2H-pyran-3,4,5-triol], the IC50 was found to be 57.2 nM.
On to `CSc1ccc(Cc2cc([C@@H]3O[C@H](CO)[C@@H](O)[C@H](O)[C@H]3O)sc2Cl)cc1` [Example 12, (2R,3R,4S,5S,6R)-2-(5-chloro-4-(4-(methylthio)benzyl)thiophen-2-yl)-6-(hydroxymethyl)-tetrahydro-2H-pyran-3,4,5-triol], for which the 50% inhibitory concentration (IC50) was 12.8 nM.
In the case of `CCOCCOc1ccc(Cc2cc([C@@H]3O[C@H](CO)[C@@H](O)[C@H](O)[C@H]3O)sc2Cl)cc1` [Example 13, (2R,3R,4S,5S,6R)-2-(5-chloro-4-(4-(2-ethoxyethoxy)benzyl)thiophen-2-yl)-6-(hydroxymethyl)-tetrahydro-2H-pyran-3,4,5-triol], the concentration for half-maximal inhibition (IC50) was 70.7 nM.
The value for `Cc1ccc(Cc2cc([C@@H]3O[C@H](CO)[C@@H](O)[C@H](O)[C@H]3O)sc2Cl)cc1` [Example 14, (2R,3R,4S,5S,6R)-2-(5-chloro-4-(4-methylbenzyl)thiophen-2-yl)-6-(hydroxymethyl)-tetrahydro-2H-pyran-3,4,5-triol] was 60.2 nM.
The value for `CC#CCOc1ccc(Cc2cc([C@@H]3O[C@H](CO)[C@@H](O)[C@H](O)[C@H]3O)sc2Cl)cc1` [Example 15, (2R,3R,4S,5S,6R)-2-(4-(4-(but-2-ynyloxy)benzyl)-5-chlorothiophen-2-yl)-6-(hydroxymethyl)-tetrahydro-2H-pyran-3,4,5-triol] was 94 nM; that for `OC[C@H]1O[C@@H](c2cc(Cc3ccc(OC4CCOC4)cc3)c(Cl)s2)[C@H](O)[C@@H](O)[C@@H]1O` (stereo partly drawn) [Example 16, (2R,3R,4S,5S,6R)-2-(5-chloro-4-(4-(tetrahydrofuran-3-yloxy)benzyl)thiophen-2-yl)-6-(hydroxymethyl)-tetrahydro-2H-pyran-3,4,5-triol] was 162 nM; that for `CCc1ccc(Cc2cc([C@@H]3O[C@H](CO)[C@@H](O)[C@H](O)[C@H]3O)sc2Cl)cc1` [Example 17, (2R,3R,4S,5S,6R)-2-(5-chloro-4-(4-ethylbenzyl)thiophen-2-yl)-6-(hydroxymethyl)-tetrahydro-2H-pyran-3,4,5-triol] was 4.47 nM.
To `CCCc1ccc(Cc2cc([C@@H]3O[C@H](CO)[C@@H](O)[C@H](O)[C@H]3O)sc2Cl)cc1` [Example 18, (2R,3R,4S,5S,6R)-2-(5-chloro-4-(4-propylbenzyl)thiophen-2-yl)-6-(hydroxymethyl)-tetrahydro-2H-pyran-3,4,5-triol] belongs 10.3 nM.
Turning to `CCOc1ccc(Cc2cc([C@@H]3O[C@H](CO)[C@@H](O)[C@H](O)[C@H]3O)sc2C)cc1` [Example 19, (2R,3R,4S,5S,6R)-2-(4-(4-ethoxybenzyl)-5-methylthiophen-2-yl)-6-(hydroxymethyl)-tetrahydro-2H-pyran-3,4,5-triol], the half-inhibitory concentration (IC50) is 8.73 nM.
As to `COc1ccc(Cc2cc([C@@H]3O[C@H](CO)[C@@H](O)[C@H](O)[C@H]3O)sc2C)cc1` [Example 20, (2R,3S,4S,5R,6R)-2-(hydroxymethyl)-6-(4-(4-methoxybenzyl)-5-methylthiophen-2-yl)-tetrahydro-2H-pyran-3,4,5-triol], the IC50 turned out to be 11.5 nM.
The value for `Cc1sc([C@@H]2O[C@H](CO)[C@@H](O)[C@H](O)[C@H]2O)cc1Cc1ccc(-c2ccc(F)cc2)s1` [Example 21, (2R,3R,4S,5S,6R)-2-(4-((5-(4-fluorophenyl)thiophen-2-yl)methyl)-5-methylthiophen-2-yl)-6-(hydroxymethyl)-tetrahydro-2H-pyran-3,4,5-triol] was 21.1 nM; that for `C=CCOc1ccc(Cc2cc([C@@H]3O[C@H](CO)[C@@H](O)[C@H](O)[C@H]3O)sc2C)cc1` [Example 22, (2R,3R,4S,5S,6R)-2-(4-(4-(allyloxy)benzyl)-5-methylthiophen-2-yl)-6-(hydroxymethyl)-tetrahydro-2H-pyran-3,4,5-triol] was 27.5 nM; that for `Cc1sc([C@@H]2O[C@H](CO)[C@@H](O)[C@H](O)[C@H]2O)cc1Cc1ccc(O)cc1` [Example 23, (2R,3R,4S,5S,6R)-2-(4-(4-hydroxybenzyl)-5-methylthiophen-2-yl)-6-(hydroxymethyl)-tetrahydro-2H-pyran-3,4,5-triol] was 50.2 nM.
For `CCCc1ccc(Cc2sc([C@@H]3O[C@H](CO)[C@@H](O)[C@H](O)[C@H]3O)cc2C)cc1` [Example 24, (2R,3S,4S,5R,6R)-2-(hydroxymethyl)-6-(4-methyl-5-(4-propylbenzyl)thiophen-2-yl)tetrahydro-2H-pyran-3,4,5-triol], the IC50 was determined as 59.8 nM.
Take `CCc1ccc(Cc2sc([C@@H]3O[C@H](CO)[C@@H](O)[C@H](O)[C@H]3O)cc2C)cc1` [Example 25, (2R,3R,4S,5S,6R)-2-(5-(4-ethylbenzyl)-4-methylthiophen-2-yl)-6-(hydroxymethyl)tetrahydro-2H-pyran-3,4,5-triol]: the IC50 amounted to 24.8 nM.
Take `Cc1ccc(Cc2sc([C@@H]3O[C@H](CO)[C@@H](O)[C@H](O)[C@H]3O)cc2C)cc1` [Example 26, (2R,3S,4S,5R,6R)-2-(hydroxymethyl)-6-(4-methyl-5-(4-methylbenzyl)thiophen-2-yl)tetrahydro-2H-pyran-3,4,5-triol]: the IC50 was 69.6 nM.
The value for `Cc1cc([C@@H]2O[C@H](CO)[C@@H](O)[C@H](O)[C@H]2O)sc1Cc1ccc(C(C)(C)C)cc1` [Example 27, (2R,3R,4S,5S,6R)-2-(5-(4-tert-butylbenzyl)-4-methylthiophen-2-yl)-6-(hydroxymethyl)tetrahydro-2H-pyran-3,4,5-triol] was 88.3 nM; that for `Cc1cc([C@@H]2O[C@H](CO)[C@@H](O)[C@H](O)[C@H]2O)sc1Cc1ccc(Cl)cc1` [Example 28, (2R,3R,4S,5S,6R)-2-(5-(4-chlorobenzyl)-4-methylthiophen-2-yl)-6-(hydroxymethyl)tetrahydro-2H-pyran-3,4,5-triol] was 451 nM.
The value for `Cc1cc([C@@H]2O[C@H](CO)[C@@H](O)[C@H](O)[C@H]2O)sc1Cc1ccc(F)cc1` [Example 29, (2R,3R,4S,5S,6R)-2-(5-(4-fluorobenzyl)-4-methylthiophen-2-yl)-6-(hydroxymethyl)tetrahydro-2H-pyran-3,4,5-triol] was over 10000 nM; that for `COc1ccc(Cc2sc([C@@H]3O[C@H](CO)[C@@H](O)[C@H](O)[C@H]3O)cc2C)cc1` [Example 30, (2R,3S,4S,5R,6R)-2-(hydroxymethyl)-6-(5-(4-methoxybenzyl)-4-methylthiophen-2-yl)tetrahydro-2H-pyran-3,4,5-triol] was 68.9 nM.

(Values after US9006187B2, “Thiophene derivative as SGLT2 inhibitor and pharmaceutical composition comprising same” (Green Cross Corporation, priority 2010, dated 2015).)
